Experimental data from patent US6927039B2, “Enzymatic process” (Nanobiodesign Limited, priority 2000, dated 2005).
Like-named read-outs stand apart in the source and are kept apart here.

What was measured:
cytochrome P450 BM3 [1] = molecular target: T1, cytochrome P450 BM3 (Priestia megaterium, UniProt P14779); assay: Alkali assay of NADP+ production in whole E.coli BL21(DE3) cells expressing P450 BM3 (in vivo assay); conditions: for R (Remark): substrate or no-interaction with P450 BM3; for Vmax: alkali assay; for Vmax / time at which the plateau of the A360 alkali product curve is reached: NADPH 1.5 mM; for time at which the plateau of the A360 alkali product curve is reached: substrate concentration about 0.8 mM; for substrate concentration above which the linear region of NADPH oxidation was found in the first 25 min: ~0-25 min after NADPH addition
T1 sequence (P14779 1-1049): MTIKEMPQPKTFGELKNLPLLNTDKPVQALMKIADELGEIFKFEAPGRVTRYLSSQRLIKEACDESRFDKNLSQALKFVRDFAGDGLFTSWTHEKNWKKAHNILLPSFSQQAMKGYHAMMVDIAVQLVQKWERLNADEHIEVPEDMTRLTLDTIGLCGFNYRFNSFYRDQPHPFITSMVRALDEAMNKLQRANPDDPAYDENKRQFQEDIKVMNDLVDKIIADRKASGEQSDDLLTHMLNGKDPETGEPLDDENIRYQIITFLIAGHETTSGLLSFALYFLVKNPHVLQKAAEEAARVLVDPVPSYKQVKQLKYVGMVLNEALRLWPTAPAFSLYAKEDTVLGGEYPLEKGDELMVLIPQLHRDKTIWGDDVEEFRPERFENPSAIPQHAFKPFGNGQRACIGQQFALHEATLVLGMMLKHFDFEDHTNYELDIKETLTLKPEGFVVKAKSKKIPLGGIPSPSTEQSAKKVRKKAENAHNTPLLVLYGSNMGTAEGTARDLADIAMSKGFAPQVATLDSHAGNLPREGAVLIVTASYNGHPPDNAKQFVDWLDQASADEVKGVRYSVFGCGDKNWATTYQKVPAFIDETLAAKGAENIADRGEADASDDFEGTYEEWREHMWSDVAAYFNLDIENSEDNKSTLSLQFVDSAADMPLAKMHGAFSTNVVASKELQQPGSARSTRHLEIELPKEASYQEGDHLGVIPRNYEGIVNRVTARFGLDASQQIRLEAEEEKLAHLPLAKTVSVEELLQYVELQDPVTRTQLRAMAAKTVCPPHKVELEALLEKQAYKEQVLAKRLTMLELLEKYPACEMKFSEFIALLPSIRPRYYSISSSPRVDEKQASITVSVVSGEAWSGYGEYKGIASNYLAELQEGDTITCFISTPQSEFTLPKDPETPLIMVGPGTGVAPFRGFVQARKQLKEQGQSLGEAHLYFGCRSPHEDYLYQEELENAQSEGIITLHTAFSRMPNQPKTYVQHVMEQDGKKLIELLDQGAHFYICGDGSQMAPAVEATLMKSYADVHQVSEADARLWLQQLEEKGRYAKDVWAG

cytochrome P450 BM3 [2] = molecular target: T1, cytochrome P450 BM3; assay: Hydrogen peroxide determination (uncoupling) by HRP/ABTS assay, purified enzyme; type: biochemical, Bacillus megaterium; design: expressed in transfected cells; host or cells: E. coli BL21(DE3) transformed with pT7Bm3Z; conditions: 150 μM NADPH
Method: Hydrogen Peroxide Determination. Uncoupled reactions were determined by measuring the production of hydrogen peroxide during substrate turnover using the horseradish peroxidase (HRP)/2′2-Azino-di(3-ethyl-benzathiazoline-6-sulphonic acid) (ABTS) assay as described by Childs and Bardsley (31). The extinction coefficient at 414 nm of the radical cation of ABTS was calculated to 32.95 mM^−1 cm^−1, in accordance with the published value. The assay mixture composition was essentially similar to that utilised during the substrate-dependent NADPH consumption assay (20-30 nM P450 BM3 in 100 mM potassium phosphate buffer pH 8.0, 150 μM NADPH, and at least 1.7 times higher substrate concentration relative to NADPH concentration). When all NADPH was consumed (as judged from the disappearance of the 340 nm peak) the hydrogen peroxide produced was measured. Uncoupling in whole cells was measured following essentially the same assay in whole cells in 100 mM potassium phosphate buffer pH 8.0 incubated with substrate and NADPH as in the alkali method.

cytochrome P450 BM3 [3] = molecular target: T1, cytochrome P450 BM3; assay: Substrate binding by spectral titration of the haem high spin band, purified enzyme (in vitro); design: expressed in transfected cells; host or cells: E. coli BL21(DE3) transformed with pT7Bm3Z; species or system Bacillus megaterium
Method: Substrate Binding and NADPH Consumption Assays. Substrate binding was followed in a Hewlett-Packard 8452A diode array spectrophotometer, equipped with a Hewlett-Packard peltier temperature controller 89090 by monitoring the increase in the high spin band of the haem at 390 nm, upon titration with different substrates. The dissociation constant Kd was calculated by fitting the obtained data to the equation [ES]=((ΔA390-ΔA421)max·[S]free)/(Kd+[S]free) where [ES]=(ΔA390-ΔA421)/(ΔA392-ΔA421)max·[P450 BM3] and [S]free=[S]added−[ES].
(§1) NADPH consumption was followed at 340 nm using a Δε340=6.22 mM^−1·cm^−1. Both assays were performed at 20° C. using P450 BM3 in 100 mM potassium phosphate buffer, pH 8.0. Reaction was initiated by addition to the substrate bound enzyme of NADPH to a final concentration of 130-150 μM. In the kinetics assay the rate constant kcat was calculated from the linear part of the decrease in A340 with time, which lasted at least for the first 4 sec. The enzyme concentration typically varied between 0.4 and 0.8 μM in the binding assay and between 8 and 25 nM in the catalytic assay. Substrate stock solutions were freshly prepared the day of the assay. Fatty acid stock solutions were in 50 mM potassium carbonate, SDS was easily dissolved in water, while TCE stock solutions were prepared in ethanol. If appropriate, stocks of candidate agents may be prepared in, for example, N,N-dimethylformamide just before the assay. […] The confidence interval for Kd given in the results section is the mean±the standard deviation of at least four measurements, as calculated using the software Kaleidagraph. Similarly kcat was calculated by fitting data points to the Michaelis-Menten equation. Each data point is the mean of at least four measurements.

E.coli BL21(DE3) cells = assay: Toxicity of substrate to the whole cells used in the assay; type: cell-based
Method: When the initial rate of AA, LA, and SDS oxidation was plotted against substrate concentration a Michaelis-Menten-type curve was obtained as shown in FIG. 6. […] The kinetic parameters determined following the substrate-dependent NADPH oxidation with time in the whole-cell assay are given in Table 1. For all the three substrates the extent of uncoupling of P450 BM3 from substrate hydroxylation was also determined in a whole-cell assay. This was essentially an adaptation of the hydrogen peroxide quantification method of HRP with ABTS described for the experiments carried out on purified enzyme.
The potential lethal effect that high concentrations of substrate may have on whole cells (as in the case of arachidonic acid at concentrations higher than 170 μM, FIG. 7A.) can be overcome without loss of sensitivity by successive small additions of substrate. The increase of the A360 signal with subsequent additions of SDS to whole cells expressing P450 BM3 is reported in FIG. 8, where it can be observed how the increase in the absorbance becomes limited by the NADPH concentration. At 1.5 h after NADPH addition, when SDS is supplied periodically to the cells an increase of about 45% in the NADP^+ production is seen, which should correspond to a ratio of sample A360 signal/blank signal of about 30. […]

cytochrome P450 BM3 [4] = molecular target: T1, cytochrome P450 BM3; assay: Substrate-dependent NADPH consumption assay at 340 nm, purified enzyme (in vitro); type: biochemical, Bacillus megaterium; design: expressed in transfected cells; host or cells: E. coli BL21(DE3) transformed with pT7Bm3Z; conditions: NADPH 130-150 μM, 20° C., pH 8.0
Method: as §1

[5] = 20° C., 100 mM potassium phosphate buffer pH 8.0, read-out: Kd

Row | Structure (SMILES) | R (Remark) (cytochrome P450 BM3 [1]) | % H2O2 (cytochrome P450 BM3 [2]) | Kd (cytochrome P450 BM3 [3]; [5]) | Vmax (cytochrome P450 BM3 [1]; whole cells) | time at which the plateau of the A360 alkali product curve is reached (cytochrome P450 BM3 [1]; whole cells) | substrate concentration above which the linear region of NADPH oxidation was found in the first 25 min (cytochrome P450 BM3 [1]; whole cells) | toxicity to E.coli BL21(DE3) cells (E.coli BL21(DE3) cells) | concentration above which the substrate has a lethal effect on whole cells (E.coli BL21(DE3) cells; E.coli BL21(DE3) cells expressing P450 BM3) | Kd (cytochrome P450 BM3 [3]; printed as an order-of-magnitude range in M, read-out: Kd) | ratio of sample A360 signal/blank signal (cytochrome P450 BM3 [1]; whole cells, SDS supplied periodically, 1.5 h after NADPH addition) | KM (cytochrome P450 BM3 [4]) | kcat (cytochrome P450 BM3 [4]) | Kd (cytochrome P450 BM3 [3]; 20° C., 100 mM potassium phosphate buffer pH 8.0)
1 | ClC(Cl)C(Cl)Cl [TCE, 1,1,2,2-tetrachloroethane] | S | 0% | 4010 ± 830 µM |  |  |  |  |  |  |  |  |  | 
2 | CCCCCCCCCCCC(=O)O [LA, lauric acid] | S | 0.66% | 135 ± 38.2 µM | 10.26 ± 0.87 nM NADP^+/min | 7 h | higher than 200 μM |  |  |  |  |  |  | 
3 | CCCCC/C=C\C/C=C\C/C=C\C/C=C\CCCC(=O)O [AA, arachidonic acid] | S | 0.11% |  |  |  |  | relatively high toxicity | higher than 170 μM | ~0.1 µM |  |  |  | 
4 | CCCCCCCCCCCCOS(=O)(=O)[O-].[Na+] [SDS, sodium dodecyl sulphate] | S | 0.63% | 11.5 ± 3.7 µM | 18.19 ± 1.12 nM NADP^+/min | 3.5 h | higher than 300 μM |  |  |  | about 30 |  |  | 
5 | CCCCCC [n-hexane] | N |  |  |  |  |  |  |  |  |  | n.o. | n.o. | n.o.
